According to US7279444B2, “Substituted benzoylpyrazoles” (Bayer CropScience GmbH, priority 1999, dated 2007):
Marks after values point to notes of the source that are not given here.

Experiment: log P by HPLC on reversed-phase column (C 18), acidic range
Type: physicochemical
Protocol: Temperature: 43° C. […] The log P values given in Table 3 were determined in accordance with EEC Directive 79/831 Annex V.A8 by HPLC (High Performance Liquid Chromatography) on a reversed-phase column (C 18). Temperature: 43° C. […] The log P values given in Tables 4 were determined in accordance with EEC Directive 79/831 Annex V.A8 by HPLC (High Performance Liquid Chromatography) on a reversed-phase column (C 18). Temperature: 43° C.

Compound	logP
CCn1ncc(C(=O)c2ccc(Cl)c(Cn3nc(OC(C)C)n(C4CC4)c3=O)c2Cl)c1O [Example 33]	(IB)logP = 4.64^a)
CCn1ncc(C(=O)c2ccc(Cl)c(Cn3nc(OCC(F)(F)F)n(C4CC4)c3=O)c2Cl)c1O [Example 34]	(IB)logP = 2.65^a)
CCn1ncc(C(=O)c2ccc(Cl)c(Cn3nc(SC)n(C4CC4)c3=O)c2Cl)c1O [Example 35]	(IB)logP = 2.27^a)
CCn1ncc(C(=O)c2ccc(Cl)c(Cn3nc(C)n(C4CC4)c3=O)c2Cl)c1O [Example 36]	(IB)logP = 1.64^a)
CCn1ncc(C(=O)c2ccc(Cl)c(Cn3nc(N(C)C)n(C4CC4)c3=O)c2Cl)c1O [Example 37]	(IB)logP = 2.04^a)
CCOn1c(CC)nn(Cc2c(Cl)ccc(C(=O)c3cnn(CC)c3O)c2Cl)c1=O [Example 38]	(IB)logP = 2.16^a)
Cc1nn(C)c(O)c1C(=O)c1ccc(Cl)c(Cn2nc(Br)n(C)c2=O)c1Cl [Example 39]	logP = 1.52^a)
Cn1ncc(C(=O)c2ccc(Cl)c(Cn3nc(Br)n(C)c3=O)c2Cl)c1O [Example 40]	logP = 1.53^a)
CCn1nc(C)c(C(=O)c2ccc(Cl)c(Cn3nc(SC)n(C)c3=O)c2Cl)c1O [Example 41]	logP = 1.91^a)
CCOc1nn(Cc2c(Cl)ccc(C(=O)c3c(C)nn(CC)c3O)c2Cl)c(=O)n1C [Example 42]	logP = 2.02^a)
CCn1nc(C)c(C(=O)c2ccc(Cl)c(Cn3nc(OC)n(C)c3=O)c2Cl)c1O [Example 43]	logP = 1.71^a)
CCn1nc(C)c(C(=O)c2ccc(Cl)c(Cn3nc(Br)n(C)c3=O)c2Cl)c1O [Example 44]	logP = 1.81^a)
CCn1nc(C)c(C(=O)c2ccc(Cl)c(Cn3nc(C)n(C)c3=O)c2Cl)c1O [Example 45]	logP = 1.40^a)
CSc1nn(Cc2c(Cl)ccc(C(=O)c3c(C)nn(C(C)(C)C)c3O)c2Cl)c(=O)n1C [Example 46]	logP = 3.30^a)
CCOc1nn(Cc2c(Cl)ccc(C(=O)c3c(C)nn(C(C)(C)C)c3O)c2Cl)c(=O)n1C [Example 47]	logP = 3.44^a)
COc1nn(Cc2c(Cl)ccc(C(=O)c3c(C)nn(C(C)(C)C)c3O)c2Cl)c(=O)n1C [Example 48]	logP = 3.02^a)
Cc1nn(C(C)(C)C)c(O)c1C(=O)c1ccc(Cl)c(Cn2nc(Br)n(C)c2=O)c1Cl [Example 49]	logP = 3.19^a)
Cc1nn(C(C)(C)C)c(O)c1C(=O)c1ccc(Cl)c(Cn2nc(C)n(C)c2=O)c1Cl [Example 50]	logP = 2.53^a)
CSc1nn(Cc2c(Cl)ccc(C(=O)c3c(C)nn(C)c3O)c2Cl)c(=O)n1C [Example 51]	logP = 1.66^a)
CCOc1nn(Cc2c(Cl)ccc(C(=O)c3c(C)nn(C)c3O)c2Cl)c(=O)n1C [Example 52]	logP = 1.76^a)
COc1nn(Cc2c(Cl)ccc(C(=O)c3c(C)nn(C)c3O)c2Cl)c(=O)n1C [Example 53]	logP = 1.48^a)
Cc1nn(C)c(O)c1C(=O)c1ccc(Cl)c(Cn2nc(C)n(C)c2=O)c1Cl [Example 54]	logP = 1.20^a)
CSc1nn(Cc2c(Cl)ccc(C(=O)c3cnn(C)c3O)c2Cl)c(=O)n1C [Example 55]	logP = 1.67^a)
CCOc1nn(Cc2c(Cl)ccc(C(=O)c3cnn(C)c3O)c2Cl)c(=O)n1C [Example 56]	logP = 1.77^a)

Compound	logP
COc1nn(Cc2c(Cl)ccc(C(=O)c3cnn(C)c3O)c2Cl)c(=O)n1C [Example 57]	logP = 1.48^a)
Cc1nn(Cc2c(Cl)ccc(C(=O)c3cnn(C)c3O)c2Cl)c(=O)n1C [Example 58]	logP = 1.19^a)
CCOc1nn(Cc2ccc(C(=O)c3cnn(CC)c3O)c([N+](=O)[O-])c2OC)c(=O)n1C [Example 59]	logP = 1.99^a)
CCn1ncc(C(=O)c2ccc(Cn3nc(SC)n(C)c3=O)c(OC)c2[N+](=O)[O-])c1O [Example 60]	logP = 1.92^a)
CCn1ncc(C(=O)c2ccc(Cl)c(Cn3nc(SC)n(C)c3=O)c2F)c1O [Example 62]	logP = 1.99^a)
CCn1ncc(C(=O)c2ccc(C(F)(F)F)cc2Cn2nc(C)n(C)c2=O)c1O [Example 64]	logP = 1.80^a)
CCn1ncc(C(=O)c2ccc(C(F)(F)F)cc2Cn2nc(COC)n(C)c2=O)c1O [Example 65]	logP =1.98^a)
CCn1ncc(C(=O)c2ccc(C(F)(F)F)cc2Cn2nc(OC)n(C)c2=O)c1O [Example 66]	logP = 2.27^a)
CCn1ncc(C(=O)c2ccc(S(C)(=O)=O)cc2Cn2nc(C(F)(F)F)n(C)c2=O)c1O [Example 67]	logP = 1.60^a)
CCn1ncc(C(=O)c2ccc(S(C)(=O)=O)cc2Cn2nc(OCC(F)(F)F)n(C)c2=O)c1O [Example 68]	logP = 1.73^a)
CCn1ncc(C(=O)c2ccc(F)c(Cn3nc(C)n(C)c3=O)c2Cl)c1O [Example 69]	logP = 1.76^a)
CCn1ncc(C(=O)c2ccc(F)c(Cn3nc(SC)n(C)c3=O)c2Cl)c1O [Example 70]	logP = 1.76^a)
CCn1ncc(C(=O)c2ccc(F)c(Cn3nc(OC)n(C)c3=O)c2Cl)c1O [Example 71]	logP = 1.55^a)
CCn1ncc(C(=O)c2ccc(F)c(Cn3nc(N(C)C)n(C)c3=O)c2Cl)c1O [Example 72]	logP = 1.62^a)
CCn1ncc(C(=O)c2ccc(Cl)c(CN3CCN(C)C3=O)c2Cl)c1O [ID-1]	logP = 1.64^a)
CCn1ncc(C(=O)c2ccc(Cl)c(CN3CCCN(C)C3=O)c2Cl)c1O [ID-2]	logP = 1.77^a)
CN1CCCN(Cc2c(Cl)ccc(C(=O)c3cnn(C)c3O)c2Cl)C1=O [ID-3]	logP = 1.52^a)
Cc1nn(C)c(O)c1C(=O)c1ccc(Cl)c(CN2CCCN(C)C2=O)c1Cl [ID-4]	logP = 1.50^a)
CCn1nc(C)c(C(=O)c2ccc(Cl)c(CN3CCCN(C)C3=O)c2Cl)c1O [ID-5]	logP = 1.72^a)
Cc1nn(C(C)(C)C)c(O)c1C(=O)c1ccc(Cl)c(CN2CCCN(C)C2=O)c1Cl [ID-6]	logP = 3.01^a)
CCn1ncc(C(=O)c2ccc(C(F)(F)F)cc2Cn2nc(SC)sc2=O)c1O [ID-7]	logP = 2.98^a)
CCn1ncc(C(=O)c2ccc(C(F)(F)F)cc2Cn2cc(Cl)cc(Cl)c2=O)c1O [ID-8]	logP = 2.75^a)
CCOc1nn(Cc2cc(C(F)(F)F)ccc2C(=O)c2cnn(CC)c2OS(=O)(=O)c2ccc(C)cc2)c(=O)n1C [ID-9]	logP = 3.82^a)
CCn1ncc(C(=O)c2ccc(C(F)(F)F)cc2Cn2nc(SC)n(C)c2=O)c1OS(=O)(=O)c1ccc(C)cc1 [ID-10]	logP = 3.73^a)

Compound	logP
CCOc1nn(Cc2cc(C(F)(F)F)ccc2C(=O)c2cnn(CC)c2OS(C)(=O)=O)c(=O)n1C [ID-11]	logP = 3.25^a)
CCn1ncc(C(=O)c2ccc(C(F)(F)F)cc2Cn2nc(SC)n(C)c2=O)c1OS(C)(=O)=O [ID-12]	logP = 2.82^a)
CCOc1nn(Cc2cc(C(F)(F)F)ccc2C(=O)c2cnn(CC)c2OC)c(=O)n1C [ID-13]	logP = 2.74^a)
CCOc1c(C(=O)c2ccc(C(F)(F)F)cc2Cn2nc(OCC)n(C)c2=O)cnn1CC [ID-14]	logP = 2.82^a)
CCOc1nn(Cc2cc(C(F)(F)F)ccc2C(=O)c2cnn(CC)c2OC(C)C)c(=O)n1C [ID-15]	logP = 3.11^a)
C=CCOc1c(C(=O)c2ccc(C(F)(F)F)cc2Cn2nc(OCC)n(C)c2=O)cnn1CC [ID-16]	logP = 2.99^a)
CCOc1nn(Cc2cc(C(F)(F)F)ccc2C(=O)c2cnn(CC)c2OCc2ccccc2)c(=O)n1C [ID-17]	logP = 3.45^a)
CCOc1nn(Cc2cc(C(F)(F)F)ccc2C(=O)c2cnn(CC)c2OCc2ccc(C)cc2)c(=O)n1C [ID-18]	logP = 3.79^a)
CCOc1nn(Cc2cc(C(F)(F)F)ccc2C(=O)c2cnn(CC)c2OCc2ccc(Br)cc2)c(=O)n1C [ID-19]	logP = 3.97^a)
CCOc1nn(Cc2cc(C(F)(F)F)ccc2C(=O)c2cnn(CC)c2OCc2ccc(C#N)cc2)c(=O)n1C [ID-20]	logP = 3.12^a)
CCOc1nn(Cc2cc(C(F)(F)F)ccc2C(=O)c2cnn(CC)c2OCc2ccc(F)cc2)c(=O)n1C [ID-21]	logP = 3.49^a)
CCOc1nn(Cc2cc(C(F)(F)F)ccc2C(=O)c2cnn(CC)c2OCc2ccc(Cl)cc2)c(=O)n1C [ID-22]	logP = 3.85^a)
CCOc1nn(Cc2cc(C(F)(F)F)ccc2C(=O)c2cnn(CC)c2OCc2ccc(Cl)c(Cl)c2)c(=O)n1C [ID-23]	logP = 4.26^a)
CCOc1nn(Cc2cc(C(F)(F)F)ccc2C(=O)c2cnn(CC)c2OCc2cccc(Cl)c2)c(=O)n1C [ID-24]	logP = 3.84^a)
CCOc1nn(Cc2cc(C(F)(F)F)ccc2C(=O)c2cnn(CC)c2OCc2ccc([N+](=O)[O-])cc2)c(=O)n1C [ID-25]	logP = 3.33^a)
CCOc1nn(Cc2cc(C(F)(F)F)ccc2C(=O)c2cnn(CC)c2OCc2ccc(C(F)(F)F)cc2)c(=O)n1C [ID-26]	logP = 3.98^a)
CCOc1nn(Cc2cc(C(F)(F)F)ccc2C(=O)c2cnn(CC)c2OCc2cccc(C(F)(F)F)c2)c(=O)n1C [ID-27]	logP = 3.94^a)
CCn1ncc(C(=O)c2ccc(C(F)(F)F)cc2Cn2nc(SC)n(C)c2=O)c1OC [ID-30]	logP = 2.65^a)
CCOc1c(C(=O)c2ccc(C(F)(F)F)cc2Cn2nc(SC)n(C)c2=O)cnn1CC [ID-31]	logP = 2.71^a)
CCn1ncc(C(=O)c2ccc(C(F)(F)F)cc2Cn2nc(SC)n(C)c2=O)c1OC(C)C [ID-32]	logP = 3.00^a)
C=CCOc1c(C(=O)c2ccc(C(F)(F)F)cc2Cn2nc(SC)n(C)c2=O)cnn1CC [ID-33]	logP = 2.89^a)
CCn1ncc(C(=O)c2ccc(C(F)(F)F)cc2Cn2nc(SC)n(C)c2=O)c1OCc1ccccc1 [ID-34]	logP = 3.37^a)
CCn1ncc(C(=O)c2ccc(C(F)(F)F)cc2Cn2nc(SC)n(C)c2=O)c1OCc1ccc(C)cc1 [ID-35]	logP = 3.71^a)
CCn1ncc(C(=O)c2ccc(C(F)(F)F)cc2Cn2nc(SC)n(C)c2=O)c1OCc1ccc(Br)cc1 [ID-36]	logP = 3.89^a)
